Each structure is given as a SMILES string. Converted amounts (≈) assume the structure as drawn.

The nature of series [1]: Inhibition of NS5A in HCV genotype-1b infected in human HuH7 cells by luciferase reporter gene assay. It is filed as cell-based, Hepatitis C virus subtype 1b. The conditions noted are these: Hepatitis C virus, Huh-7.
The nature of series [2]: Inhibition of HCV genotype-1a NS5A. Further details: species or system Hepatitis C virus subtype 1a.
Series [3] in a line: Inhibition of HCV genotype-1b NS5A. Further details: species or system Hepatitis C virus subtype 1b.
The nature of series [4]: Inhibition of NS5A in HCV genotype-1a infected in human HuH7 cells by luciferase reporter gene assay. Type of series: cell-based, Hepatitis C virus subtype 1a. The settings on record: Hepatitis C virus, Huh-7.
Series [5] in a line: AUClast in cynomolgus monkey at 1 mg/kg, iv. It is filed as ADME, organism-based, Macaca fascicularis. Also noted: dose 1 mg/kg, route intravenous, time 0 - last. The settings on record: plasma.
Series [6] is described as follows: Plasma concentration in Sprague-Dawley rat […] at 100 mg/kg, po after 4 hrs. Type of series: ADME, organism-based. Also noted: dose 100 mg/kg, route oral.
The nature of series [7]: Clearance in Sprague-Dawley rat at 1 mg/kg, iv. Type of series: ADME, organism-based. Also noted: dose 1 mg/kg, route intravenous. The settings on record: in vivo.
A short description of series [8]: Cmax in Sprague-Dawley rat at 5 mg/kg, po. It is filed as ADME, organism-based. Further details: dose 5 mg/kg, route oral. The conditions noted are these: in vivo.
The nature of series [9]: AUClast in Sprague-Dawley rat at 1 mg/kg, iv. It is filed as ADME, organism-based. Also noted: time 0 - last, dose 1 mg/kg, route intravenous. The conditions noted are these: plasma.
Series [10] can be described thus: Half life in Sprague-Dawley rat at 1 mg/kg, iv. It is filed as ADME, organism-based. Further details: dose 1 mg/kg, route intravenous. The conditions noted are these: in vivo.
A short description of series [11]: Tmax in Sprague-Dawley rat at 5 mg/kg, po. Also noted: dose 5 mg/kg, route oral. Type of series: ADME, organism-based. The settings on record: in vivo.
The nature of series [12]: AUClast in cynomolgus monkey at 5 mg/kg, po. Also noted: time 0 - last, dose 5 mg/kg, route oral. It is filed as ADME, organism-based, Macaca fascicularis. The settings on record: plasma.
Series [13] is described as follows: Half life in cynomolgus monkey at 1 mg/kg, iv. Also noted: dose 1 mg/kg, route intravenous. The conditions noted are these: in vivo. It is filed as ADME, organism-based, Macaca fascicularis.
Series [14] can be described thus: Drug uptake in Sprague-Dawley rat liver at 5 mg/kg, po after 4 hrs. Also noted: dose 5 mg/kg, route oral. It is filed as ADME, organism-based. The conditions noted are these: read-out: Drug uptake.
Series [15] in a line: Volume of distribution at steady state in cynomolgus monkey at 1 mg/kg, iv. It is filed as ADME, organism-based, Macaca fascicularis. Also noted: dose 1 mg/kg, route intravenous. The settings on record: in vivo, read-out: Vdss.
Series [16] in a line: Clearance in cynomolgus monkey at 1 mg/kg, iv. It is filed as ADME, organism-based, Macaca fascicularis. Also noted: dose 1 mg/kg, route intravenous. The conditions noted are these: in vivo.
A short description of series [17]: Solubility of the compound at pH 7.4 by UV detection method. Type of series: physicochemical. The settings on record: buffer.
Series [18] in a line: Tmax in Sprague-Dawley rat at 100 mg/kg, po. Type of series: ADME, organism-based. Further details: dose 100 mg/kg, route oral. The conditions noted are these: in vivo.
A short description of series [19]: Cmax in Sprague-Dawley rat at 100 mg/kg, po. It is filed as ADME, organism-based. Also noted: dose 100 mg/kg, route oral. The conditions noted are these: in vivo.
A short description of series [20]: Oral bioavailability in Sprague-Dawley rat at 5 mg/kg. Type of series: ADME, organism-based. The conditions noted are these: in vivo.
Series [21] in a line: Plasma concentration in Sprague-Dawley rat […] at 5 mg/kg, po after 4 hrs. It is filed as ADME, organism-based. Also noted: dose 5 mg/kg, route oral.
Series [22] can be described thus: Tmax in cynomolgus monkey at 5 mg/kg, po. Type of series: ADME, organism-based, Macaca fascicularis. Further details: dose 5 mg/kg, route oral. The conditions noted are these: in vivo.
Series [23] in a line: Volume of distribution at steady state in Sprague-Dawley rat at 1 mg/kg, iv. It is filed as ADME, organism-based. Also noted: dose 1 mg/kg, route intravenous. The conditions noted are these: in vivo, read-out: Vdss.
The nature of series [24]: AUClast in Sprague-Dawley rat at 5 mg/kg, po. Also noted: time 0 - last, dose 5 mg/kg, route oral. Type of series: ADME, organism-based. The conditions noted are these: plasma.
Series [25] is described as follows: Cmax in cynomolgus monkey at 5 mg/kg, po. Also noted: dose 5 mg/kg, route oral. It is filed as ADME, organism-based, Macaca fascicularis. The settings on record: in vivo.
Series [26] can be described thus: AUClast in Sprague-Dawley rat at 100 mg/kg, po. Also noted: time 0 - last, dose 100 mg/kg, route oral. Type of series: ADME, organism-based. The conditions noted are these: plasma.
Series [27] is described as follows: Oral bioavailability in cynomolgus monkey at 5 mg/kg. Type of series: ADME, organism-based, Macaca fascicularis. The conditions noted are these: in vivo.

Regarding `COC(=O)N[C@@H](C(=O)N1CCC[C@H]1c1ncc(-c2ccc(-c3ccc(-c4cnc([C@@H]5CCCN5C(=O)[C@H](NC(=O)OC)c5ccccc5)[nH]4)cc3)cc2)[nH]1)c1ccccc1`, the EC50 worked out at 0.009 nM in [1], 0.05 nM in series [2], 0.009 nM in series [3] and 0.079 nM in series [4].
Take `COC(=O)N[C@H](C(=O)N1CCC[C@H]1c1ncc(-c2ccc(C34CCC(c5cnc([C@@H]6CCCN6C(=O)[C@@H](NC(=O)OC)C(C)C)[nH]5)(CC3)CC4)cc2)[nH]1)C(C)C`: the AUC(0-t) in [5] amounted to 2570 ng·h/mL; in series [9] it was 1050 ng·h/mL; in series [12], 7930 ng·h/mL; in series [24], 6580 ng·h/mL; in series [26] it was 242000 ng·h/mL. Moreover, the values for the concentration at 4 h in series [6], in [14] and in [21] were 15800 ng/mL, 2590 ng/mL and 653 ng/mL, respectively. The EC50 was 0.06 nM in [1] and 1.4 nM in [4]. In addition, the clearance in series [7] was 15.7 mL/min/kg; in [16] it was 6.5 mL/min/kg. Besides, the Cmax in series [8] is 980 ng/mL; in series [19], 19100 ng/mL; in series [25], 1400 ng/mL. Further, the figures for the half-life in [10] and in [13] were 1.2 h and 1.24 h, respectively. Further, the Tmax is 1.17 h in series [11], 2 h in series [18] and 4 h in series [22]. The Vd in series [15] was determined as 0.64 L/kg; in series [23], 1.31 L/kg. Also, the solubility in series [17] is 45 µg/mL (≈ 58.4 µM). Also, the bioavailability is 124% in series [20] and 61.1% in [27].
